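Results reflect a 48-hour exposure of cells in 96-well plates to compound at five concentrations. Here, GI50 denotes the concentration required for 50% inhibition of growth. TGI is the concentration that stops growth completely.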
How the values were obtained:
Assay in all cases: inhibition of tumour cell growth, NCI panel, 48 h
MCF7 breast = test system: MCF7 breast
HS 578T breast = test system: HS 578T breast
U251 CNS = test system: U251 CNS
OVCAR-3 ovarian = test system: OVCAR-3 ovarian
BT-549 breast = test system: BT-549 breast
SK-MEL-5 melanoma = test system: SK-MEL-5 melanoma
SK-MEL-28 melanoma = test system: SK-MEL-28 melanoma
EKVX NSCLC = test system: EKVX NSCLC
OVCAR-4 ovarian = test system: OVCAR-4 ovarian
786-0 renal = test system: 786-0 renal

Row | SMILES | TGI (MCF7 breast) [µM] | TGI (HS 578T breast) [µM] | TGI (U251 CNS) [µM] | TGI (OVCAR-3 ovarian) [µM] | TGI (BT-549 breast) [µM] | TGI (SK-MEL-5 melanoma) [µM] | TGI (SK-MEL-28 melanoma) [µM] | TGI (EKVX NSCLC) [µM] | TGI (OVCAR-4 ovarian) [µM] | TGI (786-0 renal) [µM] | GI50 (MCF7 breast) [µM] | GI50 (HS 578T breast) [µM] | GI50 (U251 CNS) [µM] | GI50 (OVCAR-3 ovarian) [µM] | GI50 (BT-549 breast) [µM] | GI50 (SK-MEL-5 melanoma) [µM] | GI50 (SK-MEL-28 melanoma) [µM] | GI50 (OVCAR-4 ovarian) [µM] | GI50 (786-0 renal) [µM] | GI50 (EKVX NSCLC) [µM]
1 | COc1c(OC)c(OC)c2c(c1OC)c(=O)c1ccccc1n2C | > 100 | > 100 | > 100 | > 100 | > 100 | > 100 | > 100 | > 100 | > 100 | > 100 | – | – | – | – | – | – | – | – | – | –
2 | CC(=O)[C@@]1(O)CC[C@H]2[C@@H]3C[C@H](C)C4=CC(=O)CC[C@]4(C)[C@H]3[C@@H](O)C[C@@]21C | > 100 | > 100 | > 100 | > 100 | > 100 | > 100 | > 100 | > 100 | > 100 | > 100 | – | – | – | – | – | – | – | – | – | –
3 | CC1(C)N=C(N)N=C(N)N1c1ccc(OCCCCOc2ccc(S(=O)(=O)F)cc2)c(Cl)c1 | 13 | 34.3 | 13.6 | 16.6 | 17.3 | 8.5 | 28.8 | – | 27.7 | 18.9 | 0.13 | 4.85 | 0.0506 | 0.655 | 1.32 | 0.346 | 0.559 | 6.4 | 0.355 | –
4 | O=NNc1ccc(S(=O)(=O)c2ccccc2)cn1 | > 100 | > 100 | > 100 | > 100 | > 100 | – | > 100 | > 100 | > 100 | > 100 | – | – | – | – | – | – | – | – | – | –
5 | N[C@@H]1CCCC[C@H]1N.O=C([O-])C(=O)[O-].[Pt+4] | 6.63 | > 100 | 27.1 | 25.9 | > 100 | 13.3 | 24.2 | > 100 | 83.8 | 42.9 | 0.224 | > 100 | 1.83 | 5.71 | 12.3 | 1.14 | 2.63 | 4.09 | 0.752 | 88.7
6 | N#Cc1nc2c(S(=O)(=O)c3ccccc3)c(N)n(Cc3cccnc3)c2nc1C#N | > 100 | 5.52 | 33.6 | > 100 | 37.3 | > 100 | > 100 | > 100 | > 100 | 79.3 | 13.1 | 1.81 | 9.35 | 3.48 | 4.6 | > 100 | 27.8 | > 100 | 22.2 | 81.9
7 | Cc1ccccc1N=Nc1ccc(NC(=O)c2ccnn2C)c(C)c1 | > 100 | > 100 | > 100 | > 100 | > 100 | 72.2 | > 100 | > 100 | > 100 | > 100 | 17.8 | 22.1 | 24 | > 100 | 8.53 | 4.99 | > 100 | 8.71 | 18.8 | 7.72
8 | O=C1NC(O)C(c2c[nH]c3ccccc23)=C1c1c[nH]c2ccccc12 (centres undefined) | > 25 | > 25 | > 25 | > 25 | > 25 | > 25 | > 25 | – | > 25 | > 25 | > 25 | 25 | > 25 | > 25 | > 25 | > 25 | > 25 | > 25 | > 25 | –
9 | COc1cc(-c2nn(-c3cccc(NC(=O)Nc4cc(C(F)(F)F)cc(C(F)(F)F)c4)c3)cc2-c2ccncc2)ccc1Cl | 8.59 | 8.81 | 1.13 | 1.07 | 3.45 | 1.3 | 1.94 | – | 12.9 | 1.82 | 0.563 | 1.16 | 0.36 | 0.293 | 1.26 | 0.629 | 0.758 | 0.698 | 0.892 | –
10 | CC(C)[C@H](CO)Nc1nc(Nc2ccc(C(=O)NCCNS(=O)(=O)c3cccc4c(N(C)C)cccc34)c(Cl)c2)c2ncn(C(C)C)c2n1 | > 83 | > 100 | > 100 | > 66.9 | 7.46 | 5.16 | > 100 | – | > 100 | > 100 | 0.987 | 2.08 | 2.72 | 2.65 | 1.96 | 2.07 | 2.9 | 7.71 | 3.15 | –
11 | Cc1ccc(-n2c3c(c4c(CN(C)C)c(O)ccc42)CCc2ccccc2C3=O)cc1 | 38.8 | 57.7 | 30.5 | 44.5 | 29.7 | 28.9 | – | > 100 | – | 33.3 | 19 | 21.3 | 15.6 | 21.4 | 14.9 | 14.9 | – | – | 16.9 | 38
12 | CCn1c(CN2CCN(Cc3ccccc3)CC2)nc2cc(NC(=O)c3cccs3)ccc21 | 59.9 | 48.8 | 32.3 | > 100 | 28.9 | 24.1 | 34.3 | – | 86.4 | 66.1 | 19.5 | 16.9 | 13.6 | 20.6 | 13.4 | 11.5 | 16 | 16.4 | 21.4 | –
13 | CC1=C2C[C@H]3[C@@H](CC[C@@H]4CC(NS(C)(=O)=O)CC[C@@]43C)[C@@H]2CC[C@@]2(C1)O[C@@H]1C[C@H](C)CN[C@H]1[C@H]2C (some centres undefined) | 14.9 | 37.5 | 20.8 | 14 | 26 | 5.63 | 11.3 | – | 4.79 | 24.2 | 3.49 | 11.8 | 6.92 | 4 | 12 | 2.18 | 4.81 | 1.66 | 8.94 | –
14 | Fc1ccc2c(c1)c(-c1nc(-c3c[nH]c4ncccc34)cs1)cn2CCCN1CCCCC1 | – | 7.69 | 3.33 | 3.12 | 14.5 | 3.17 | 3.26 | – | 4.01 | 3.1 | – | 2.59 | 1.82 | 1.63 | 3.72 | 1.76 | 1.75 | 1.83 | 1.65 | –

From PubChem BioAssay (NCI)
